From ChEMBL document CHEMBL1201862, “PubChem BioAssay data set” (2004)
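The compound was tested at five concentrations on cells cultured in 96-well plates, with a 48-hour exposure period. GI50 is the concentration that inhibits growth by half.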 Activity calls are given as the source filed them. No stated cut-off is given here; in the data, active = GI50 up to about 1.1 µM and inactive = higher.

Experiments:
Assay in all cases: NCI-60 cell line screen, 48 h
HT-29 = system: HT-29
NCI-H522 = system: NCI-H522
MOLT-4 = system: MOLT-4
XF498 = system: XF498
SNB-75 = system: SNB-75
UACC-62 = system: UACC-62
CAKI-1 = system: CAKI-1
LOX IMVI = system: LOX IMVI
KM-20L2 = system: KM-20L2
OVCAR-3 = system: OVCAR-3
UACC-257 = system: UACC-257
HCC 2998 = system: HCC 2998
TK-10 = system: TK-10
HOP-62 = system: HOP-62
786-0 = system: 786-0
SF-268 = system: SF-268
NCI-H23 = system: NCI-H23
SF-539 = system: SF-539
NCI-H460 = system: NCI-H460
NCI-H226 = system: NCI-H226
M14 = system: M14
A549 = system: A549
HOP-18 = system: HOP-18
Malme-3M = system: Malme-3M
SF-295 = system: SF-295
SN12C = system: SN12C
SNB-19 = system: SNB-19
SR = system: SR
SNB-78 = system: SNB-78
OVCAR-8 = system: OVCAR-8
SK-MEL-2 = system: SK-MEL-2
SK-OV-3 = system: SK-OV-3
DMS-273 = system: DMS-273
M19-MEL = system: M19-MEL
DLD-1 = system: DLD-1
EKVX = system: EKVX
SK-MEL-5 = system: SK-MEL-5
U-251 = system: U-251
KM12 = system: KM12
OVCAR-5 = system: OVCAR-5
CCRF-CEM = system: CCRF-CEM
A498 = system: A498
RXF 393 = system: RXF 393
HL-60 = system: HL-60
K562 = system: K562
HCT-116 = system: HCT-116
HOP-92 = system: HOP-92
SK-MEL-28 = system: SK-MEL-28
ACHN = system: ACHN
COLO 205 = system: COLO 205
SW-620 = system: SW-620
LXFL 529 = system: LXFL 529
HCT-15 = system: HCT-15
OVCAR-4 = system: OVCAR-4
UO-31 = system: UO-31
IGROV-1 = system: IGROV-1
RPMI-8226 = system: RPMI-8226
MCF7 = system: MCF7
NCI/ADR-RES = system: NCI/ADR-RES

## COc1c2c(cc3nc4ccccc4nc13)CCC(C(C)(C)O)C2 (configuration not stated)
HT-29
  GI50: 66.4 µM (inactive)
NCI-H522
  GI50: 31.8 µM (inactive)
MOLT-4
  GI50: 32.4 µM (inactive)
XF498
  GI50: > 100 µM (inactive)
SNB-75
  GI50: > 100 µM (inactive)
UACC-62
  GI50: > 100 µM (inactive)
CAKI-1
  GI50: > 100 µM (inactive)
LOX IMVI
  GI50: > 100 µM (inactive)
KM-20L2
  GI50: > 100 µM (inactive)
OVCAR-3
  GI50: 49.5 µM (inactive)
UACC-257
  GI50: > 100 µM (inactive)
HCC 2998
  GI50: > 100 µM (inactive)
TK-10
  GI50: > 100 µM (inactive)
HOP-62
  GI50: > 100 µM (inactive)
786-0
  GI50: > 100 µM (inactive)
SF-268
  GI50: > 100 µM (inactive)
NCI-H23
  GI50: 56.8 µM (inactive)
SF-539
  GI50: > 100 µM (inactive)
NCI-H460
  GI50: > 100 µM (inactive)
NCI-H226
  GI50: > 100 µM (inactive)
M14
  GI50: > 100 µM (inactive)
A549
  GI50: > 100 µM (inactive)
HOP-18
  GI50: 86.5 µM (inactive)
Malme-3M
  GI50: 65.6 µM (inactive)
SF-295
  GI50: > 100 µM (inactive)
SN12C
  GI50: > 100 µM (inactive)
SNB-19
  GI50: > 100 µM (inactive)
SR
  GI50: 73.6 µM (inactive)
SNB-78
  GI50: > 100 µM (inactive)
OVCAR-8
  GI50: > 100 µM (inactive)
SK-MEL-2
  GI50: > 100 µM (inactive)
SK-OV-3
  GI50: > 100 µM (inactive)
DMS-273
  GI50: 63.4 µM (inactive)
M19-MEL
  GI50: > 100 µM (inactive)
DLD-1
  GI50: > 100 µM (inactive)
EKVX
  GI50: > 100 µM (inactive)
SK-MEL-5
  GI50: 45.1 µM (inactive)
U-251
  GI50: > 100 µM (inactive)
KM12
  GI50: 82.6 µM (inactive)
OVCAR-5
  GI50: > 100 µM (inactive)
CCRF-CEM
  GI50: 45.1 µM (inactive)
A498
  GI50: > 100 µM (inactive)
RXF 393
  GI50: > 100 µM (inactive)
HL-60
  GI50: 26.4 µM (inactive)
K562
  GI50: 73.8 µM (inactive)
HCT-116
  GI50: > 100 µM (inactive)
HOP-92
  GI50: 76.2 µM (inactive)
SK-MEL-28
  GI50: > 100 µM (inactive)
ACHN
  GI50: > 100 µM (inactive)
COLO 205
  GI50: 69 µM (inactive)
SW-620
  GI50: > 100 µM (inactive)
LXFL 529
  GI50: > 100 µM (inactive)
HCT-15
  GI50: > 100 µM
OVCAR-4
  GI50: > 100 µM (inactive)
UO-31
  GI50: 83.2 µM (inactive)
IGROV-1
  GI50: > 100 µM (inactive)

## CSc1nc(NC2OCC(O)C(O)C2O)c(N)c(=O)n1C (configuration not stated)
HT-29
  GI50: > 100 µM (inactive)
NCI-H522
  GI50: > 100 µM (inactive)
MOLT-4
  GI50: > 100 µM (inactive)
XF498
  GI50: > 100 µM (inactive)
SNB-75
  GI50: 51.6 µM (inactive)
UACC-62
  GI50: > 100 µM (inactive)
LOX IMVI
  GI50: > 100 µM (inactive)
KM-20L2
  GI50: > 100 µM (inactive)
OVCAR-3
  GI50: > 100 µM (inactive)
UACC-257
  GI50: > 100 µM (inactive)
HCC 2998
  GI50: > 100 µM (inactive)
HOP-62
  GI50: > 100 µM (inactive)
SF-268
  GI50: > 100 µM (inactive)
NCI-H23
  GI50: > 100 µM (inactive)
SF-539
  GI50: 75.2 µM (inactive)
NCI-H460
  GI50: > 100 µM (inactive)
NCI-H226
  GI50: > 100 µM (inactive)
A549
  GI50: > 100 µM (inactive)
HOP-18
  GI50: > 100 µM (inactive)
Malme-3M
  GI50: > 100 µM (inactive)
SF-295
  GI50: > 100 µM (inactive)
SN12C
  GI50: > 100 µM (inactive)
RPMI-8226
  GI50: > 100 µM (inactive)
SNB-19
  GI50: > 100 µM (inactive)
SNB-78
  GI50: > 100 µM (inactive)
OVCAR-8
  GI50: > 100 µM (inactive)
SK-MEL-2
  GI50: > 100 µM (inactive)
MCF7
  GI50: > 100 µM (inactive)
SK-OV-3
  GI50: > 100 µM (inactive)
DMS-273
  GI50: > 100 µM (inactive)
DLD-1
  GI50: > 100 µM (inactive)
EKVX
  GI50: > 100 µM (inactive)
SK-MEL-5
  GI50: > 100 µM (inactive)
U-251
  GI50: > 100 µM (inactive)
KM12
  GI50: > 100 µM (inactive)
OVCAR-5
  GI50: > 100 µM (inactive)
CCRF-CEM
  GI50: > 100 µM (inactive)
A498
  GI50: > 100 µM (inactive)
RXF 393
  GI50: > 100 µM (inactive)
HL-60
  GI50: > 100 µM (inactive)
K562
  GI50: > 100 µM (inactive)
HCT-116
  GI50: > 100 µM (inactive)
HOP-92
  GI50: > 100 µM (inactive)
NCI/ADR-RES
  GI50: > 100 µM (inactive)
SK-MEL-28
  GI50: > 100 µM (inactive)
COLO 205
  GI50: > 100 µM (inactive)
SW-620
  GI50: > 100 µM (inactive)
HCT-15
  GI50: > 100 µM
OVCAR-4
  GI50: > 100 µM (inactive)
UO-31
  GI50: > 85.5 µM (inactive)
IGROV-1
  GI50: > 100 µM (inactive)
